Test results: PMC6274227, “Interactions of Bovine Serum Albumin with Anti-Cancer Compounds Using a ProteOn XPR36 Array Biosensor and Molecular Docking” (Molecules, 2016)

What was measured:
[1] = target: T1, bovine serum albumin (BSA) (Bos taurus, UniProt P02769); assay: ProteOn XPR36 SPR array biosensor binding to immobilized BSA; details: for binding to the immobilized BSA (sensorgram): SPR, PBS-T buffer pH 7.4, 25 °C; for koff / kon: bovine, pH 7.4
Procedure: The GLH sensor chip, consisting of glass prisms coated with gold and an alginate-based layer, was an ideal choice for examining protein-small molecule interactions. The chip was initialized with 50% glycerol for several minutes prior to use.
Following initialization, the GLH sensor chip was washed with 0.5% SDS, 50 mM NaOH and 100 mM HCl, respectively, for 1 min each, at a flow rate of 100 µL/min. PBS-T buffer (10 mM sodium phosphate, 150 mM NaCl, and 0.005% Tween 20, pH 7.4) was then injected in three pulses for baseline stabilization.
One of the six channels was activated with a mixture of EDC (40 mM) and sulfo-NHS (10 mM) in the horizontal direction for 3 min, at a flow rate of 30 µL/min. BSA (2 mg/mL) was diluted to 300 nM in 10 mM sodium acetate (pH 4.0) and immobilized on the channel for 5 min, at a flow rate of 30 µL/min. Next, the channel was blocked by injection of 1 M ethanolamine-HCl for 5 min. […] Baseline equilibration was performed by multiple washes with running buffer (PBS-T) across the chip surface for 1 h.
Each compound was tested at six concentrations using a two-fold dilution series. Gradient concentrations of each compound were simultaneously injected over the BSA-immobilized surface at a flow rate of 30 µL/min in the vertical direction, where the association and dissociation times were 80 s and 60 s, respectively. All interaction analyses were performed at 25 °C.
All sensorgrams for protein binding were collected, processed, and analyzed using the ProteOn Manager software. We utilized two types of reference sources, the standard blank buffer reference, and interspot reference, which was the average response before and after each interaction spot to correct for nonspecific binding. The target protein was washed off in the dissociation phase, which caused baseline drift, although real-time injection of a blank reference can completely correct this baseline drift by subtracting artifacts in real time. The dual references were both subtracted from the interaction spot data to correct for any bulk shifts due to baseline drift and nonspecific binding. Finally, the data for each compound collected over the same target protein were globally fit to a Langmuir 1:1 binding model with a global ka and kd, where ka is the association rate constant and kd is the dissociation rate constant for the protein-small molecule binding. The ratio of (kd/ka) indicated the value for the equilibrium dissociation constant (KD).

[2] = target: T1, bovine serum albumin (BSA); design: I (residues 1–183), II (184–376), III (377–583); purchased Sigma-Aldrich; method as in doi:10.1016/j.molstruc.2008.01.013; details: under physiological conditions; cited from earlier work

T1 sequence (P02769 25-607): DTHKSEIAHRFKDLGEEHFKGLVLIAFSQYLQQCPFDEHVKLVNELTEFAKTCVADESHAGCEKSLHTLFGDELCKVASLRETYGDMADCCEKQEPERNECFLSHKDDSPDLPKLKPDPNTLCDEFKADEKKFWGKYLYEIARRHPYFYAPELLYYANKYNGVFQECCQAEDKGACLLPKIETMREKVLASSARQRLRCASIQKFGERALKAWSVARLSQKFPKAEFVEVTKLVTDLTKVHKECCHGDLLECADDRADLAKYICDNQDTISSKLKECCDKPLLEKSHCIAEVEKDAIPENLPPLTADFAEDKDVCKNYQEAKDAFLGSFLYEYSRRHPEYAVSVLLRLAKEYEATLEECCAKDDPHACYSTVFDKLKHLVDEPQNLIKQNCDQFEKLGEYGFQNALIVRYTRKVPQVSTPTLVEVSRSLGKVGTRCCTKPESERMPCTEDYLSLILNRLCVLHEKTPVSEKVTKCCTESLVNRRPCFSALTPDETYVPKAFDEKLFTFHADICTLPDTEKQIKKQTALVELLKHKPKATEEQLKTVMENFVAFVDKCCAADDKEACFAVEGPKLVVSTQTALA

Row | Compound | Kd [1] [µM] | binding to the immobilized BSA (sensorgram) [1] | koff [1] [s⁻¹] | kon [1] [M⁻¹ s⁻¹] | difference in affinity for BSA between weakest and strongest binding compound ([1]; doxorubicin (weakest) versus salvianolic acid B (strongest)) | binding to BSA via spectroscopic investigation [2]
1 | C[C@@H]1O[C@@H](O[C@@H]2[C@@H](O)[C@H](OCCc3ccc(O)c(O)c3)O[C@H](CO)[C@H]2OC(=O)/C=C/c2ccc(O)c(O)c2)[C@H](O)[C@H](O)[C@H]1O [acteoside, Acteoside] | 740 ± 360 | able to reversibly bind | 0.09 ± 0.02 | 149 |  | 
2 | O=C(/C=C/c1ccc(O)c2c1[C@H](C(=O)O[C@H](Cc1ccc(O)c(O)c1)C(=O)O)[C@@H](c1ccc(O)c(O)c1)O2)O[C@H](Cc1ccc(O)c(O)c1)C(=O)O [salvianolic acid B, Salvianolic acid B] | 230 ± 70 | able to reversibly bind | 0.59 ± 0.24 | 2500 |  | 
3 | Echinacoside |  | able to reversibly bind |  |  |  | 

Continued, in another order:

Row | Kd [1] [µM] | binding to the immobilized BSA (sensorgram) [1] | koff [1] [s⁻¹] | kon [1] [M⁻¹ s⁻¹] | difference in affinity for BSA between weakest and strongest binding compound ([1]; doxorubicin (weakest) versus salvianolic acid B (strongest)) | Compound | binding to BSA via spectroscopic investigation [2]
4 |  | able to reversibly bind | 0.73 ± 0.03 | 2 | greater than 1000 fold | COc1cccc2c1C(=O)c1c(O)c3c(c(O)c1C2=O)C[C@@](O)(C(=O)CO)C[C@@H]3O[C@H]1C[C@H](N)[C@H](O)[C@H](C)O1 [doxorubicin, Doxorubicin, reference compound] | 
5 | 510 ± 250 |  |  |  |  | O=C(O)c1cc(O)c(O)c(O)c1 [gallic acid, Gallic acid] | 
6 |  | no such binding |  |  |  | OC[C@H]1O[C@@H](OCCc2ccc(O)cc2)[C@H](O)[C@@H](O)[C@@H]1O [salidroside, Salidroside] | could bind to BSA
7 | 2560 ± 430 | able to reversibly bind | 1.96 ± 0.2 | 784 |  | CC[C@]1(O)C[C@H]2CN(CCc3c([nH]c4ccccc34)[C@@](C(=O)OC)(c3cc4c(cc3OC)N(C=O)[C@H]3[C@@](O)(C(=O)OC)[C@H](OC(C)=O)[C@]5(CC)C=CCN6CC[C@]43[C@@H]65)C2)C1 [vincristine, Vincristine, reference compound] | 
